Entries after “also recorded” stand apart in the source; their conditions may differ. Like-named read-outs stand apart in the source and are kept apart here.
Key:
[1] = tested on: ZIKV strain MR766 (Genbank LC002520); assay: Antiviral activity against ZIKV replication in cells; type: cell-based, Zika virus
Experimental: (§1) The human hepatoma cell line Huh-7, are cultured in DMEM without phenol-red (Cellgro Mediatech, Cat #10-013-CV containing 4.5 g/l glucose, L-glutamine & sodium pyruvate). The medium is further supplemented with 10% (v/v) FBS (ATLAS Cat # F-0500-A, lot#850114A) and 1% (vlv) penicillin/streptomycin (Cellgro Mediatech #30-022-CI). Cells are maintained at 37° C. in a humidified 5% CO2 atmosphere. Zika virus representative strain titers are measured on BHK-21 cells, using a standard plaque assay procedure. For the determination of EC50 of nucleoside in the antiviral assay, Huh-7 cells are plated in white 96-well plates in MEM media supplemented with 10% FBS and 1% penicillin/streptomycin. After incubation for 24 h, the cells are infected at a multiplicity of infection (MOI) of 0.5 for 2 h at 37° C. Ten three-fold dilutions of compounds are prepared in the same media supplemented with 1% DMSO. After the 2 h adsorption phase, the virus is aspirated off and diluted compound is added to four wells each. Huh-7 cells are plated as described above and exposed to the same concentration range of compounds. Untreated cells are carried along as a control. After a 3-day incubation at 37° C., the cell viability is determined using Cell-titer Glo™ reagent (Promega, Madison, Wis.) that is added to each well and incubated for 5 min. Plates are analyzed using a Thermo Luminoskan plate reader (Waltham, Mass.).

[2] = Cell viability (CC50) alongside ZIKV antiviral assay, Cell-titer Glo; type: cell-based; conditions: human, Huh-7 cells
Experimental: as §1

[3] = tested on: HCV replicon of genotype 1b (Con1); assay: HCV replicon genotype 1b antiviral activity; type: cell-based; conditions: Hepatitis C virus; replicon genotype 1b (Con1); read-out: HCV GT1b EC50
[4] = tested on: Chikungunya replicon (CHIKV strain LR2006 OPY-1, GenBank EU224270); assay: Chikungunya replicon antiviral activity; type: cell-based; conditions: Chikungunya virus
Excerpt: (§2) FIG. 3. Antiviral activity of I-3 against ZIKV and CHIKV replication and cell viability determined in Huh-7 cell derived CHIKV replicon cells by intracellular ATP quantification (CellTiter-Glo).
(§3) Antiviral activity of I-3 (prodrug of 4AU) against ZIKV and CHIKV replication and cell viability determined in Huh-7 cell derived CHIKV replicon cells by intracellular ATP quantification (CellTiter-Glo).

in vitro = type: cell-based; conditions: human; Huh-7 cell derived CHIKV replicon cells
Excerpt: as §2, §3

human RNA polymerase I = target: T1, human RNA polymerase I (Homo sapiens, UniProt O95602+Q9H9Y6); assay: RNA polymerase I specific reporter gene assay in HeLa cells; type: cell-based; conditions: 10 or 100 μM (highest soluble concentrations)
T1 construct: endogenous in cells; host or cells: HeLa

human RNA polymerase II = target: T2, human RNA polymerase II (Homo sapiens, UniProt P24928+P30876); assay: RNA polymerase II specific reporter gene assay in HeLa cells; type: cell-based; conditions: 10 or 100 μM (highest soluble concentrations)
T2 construct: endogenous in cells; host or cells: HeLa

human RNA polymerase III = target: T3, human RNA polymerase III (Homo sapiens, UniProt O14802+Q9NW08); assay: RNA polymerase III specific reporter gene assay in HeLa cells; type: cell-based; conditions: 10 or 100 μM (highest soluble concentrations)
T3 construct: endogenous in cells; host or cells: HeLa

[5] = Cytotoxicity (CC50) alongside HCV GT1b replicon assay; conditions: HCV GT1b (Con1) replicon cells
[6] = target: T4, mitochondrial DNA polymerase pol γ (Homo sapiens, UniProt P54098); assay: Inhibition of mitochondrial DNA polymerase pol γ; type: biochemical; conditions: comparison nucleoside triphosphates; read-out: DNA pol γ mean IC50
T4 sequence (P54098 1-1239): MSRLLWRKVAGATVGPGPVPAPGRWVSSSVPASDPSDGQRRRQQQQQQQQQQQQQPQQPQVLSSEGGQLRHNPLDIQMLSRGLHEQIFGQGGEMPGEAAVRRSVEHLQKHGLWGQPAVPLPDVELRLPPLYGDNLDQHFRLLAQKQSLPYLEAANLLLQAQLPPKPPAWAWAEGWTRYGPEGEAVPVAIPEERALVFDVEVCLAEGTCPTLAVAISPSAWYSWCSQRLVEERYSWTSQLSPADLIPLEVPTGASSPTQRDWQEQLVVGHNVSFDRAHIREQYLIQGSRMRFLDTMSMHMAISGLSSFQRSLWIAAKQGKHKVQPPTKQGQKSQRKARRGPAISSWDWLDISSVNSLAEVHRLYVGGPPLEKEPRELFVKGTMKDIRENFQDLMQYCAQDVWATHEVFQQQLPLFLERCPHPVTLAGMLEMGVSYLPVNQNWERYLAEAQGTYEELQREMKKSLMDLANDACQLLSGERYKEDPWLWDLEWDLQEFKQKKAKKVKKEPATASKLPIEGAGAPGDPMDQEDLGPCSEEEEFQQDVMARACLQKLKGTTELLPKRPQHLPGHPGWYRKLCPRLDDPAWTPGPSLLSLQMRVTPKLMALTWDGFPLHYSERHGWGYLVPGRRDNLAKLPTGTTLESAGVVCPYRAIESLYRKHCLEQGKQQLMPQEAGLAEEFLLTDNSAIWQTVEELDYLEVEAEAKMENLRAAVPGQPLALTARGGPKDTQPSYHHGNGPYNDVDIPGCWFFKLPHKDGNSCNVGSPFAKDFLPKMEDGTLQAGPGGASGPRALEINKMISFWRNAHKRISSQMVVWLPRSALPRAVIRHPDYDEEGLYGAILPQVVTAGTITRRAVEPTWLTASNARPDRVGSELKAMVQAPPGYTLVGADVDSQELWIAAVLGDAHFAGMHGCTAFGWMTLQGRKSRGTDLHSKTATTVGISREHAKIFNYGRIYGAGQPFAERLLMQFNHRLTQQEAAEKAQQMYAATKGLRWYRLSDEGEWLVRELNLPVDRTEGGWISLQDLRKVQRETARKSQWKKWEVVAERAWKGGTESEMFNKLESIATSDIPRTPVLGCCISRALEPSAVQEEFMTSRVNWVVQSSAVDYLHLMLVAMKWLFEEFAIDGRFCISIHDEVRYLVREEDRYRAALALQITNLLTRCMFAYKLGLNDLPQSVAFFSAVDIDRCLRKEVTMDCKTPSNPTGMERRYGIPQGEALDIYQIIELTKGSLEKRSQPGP

ZIK-V-RLuc = assay: Renilla Luciferase (Rluc) assay, % infection of ZIK-V-RLuc; type: cell-based; conditions: Zika virus, 72 h, read-out: IC50 Zika
Experimental: FIG. 1. Graph of % infection of ZIK-V-RLuc at 72 h.p.i. vs. IC50 concentration (μM) of compound I-36.
FIG. 2. Graph of % infection of ZIK-V-RLuc at 72 h.p.i. vs. IC50 concentration (μM) of compound I-37.
Single Epimers I-36 and I-37, of I-1 were tested in the Rluc assay at 72 h.p.i. for % inhibition vs. concentration of compound (FIGS. 1-2): […]

HepG2 cells = assay: Mitochondrial toxicity in HepG2 cells (COX-I / SDH-A ratio); conditions: up to 11-day incubation
Excerpt: Mean values shown as individual data points; standard deviations as error bars (FIG. 4).

[7] = type: in vitro ADME, human
Experimental: The formation of 4AUTP triphosphate is determined in human cells (Huh-7 cells, PBMC), and representative mouse, rat, dog and cynomolgus monkey cells. The intracellular triphosphate concentration is determined using LC-MS/MS. In human cells, the time and concentration dependent formation of 4AUTP triphosphate is determined, as well as the half-life after removal of all extracellular prodrug by exchange of cell culture medium. Analysis of intracellular nucleoside phosphates is conducted using well-established methods.

[8] = 13 week, GLP; cited from earlier work
[9] = 13 week, GLP; cited from earlier work; remark: listed apart in the source
HCV replication = conditions: humans; cited from earlier work
[10] = human, in vivo; cited from earlier work

CCOC(=O)[C@H](C)NP(=O)(OC[C@@]1(N=[N+]=[N-])O[C@@H](n2ccc(=O)[nH]c2=O)[C@H](O)[C@@H]1O)Oc1cccc2ccccc12 (stereo partly drawn) [Compound I-3, ethyl ((((2R,3S,4R,5R)-2-azido-5-(2,4-dioxo-3,4-dihydropyrimidin-1(2H)-yl)-3,4-dihydroxytetrahydrofuran-2-yl)methoxy)(naphthalen-1-yloxy)phosphoryl)-L-alaninate]
EC50 ([1]; Zika virus, ZIKV strain MR766, human Huh-7 or mouse MEF cells): 480 nM
antiviral inhibition potency (EC50), in words ([1]; summary statement): submicromolar
CC50 at 3 day ([2]; cytotoxicity column of the ZIKV assay, read-out: ZIKV CC50): > 100 µM
CC50 at 3 day ([2]; summary statement, cytotoxicity in cell culture, read-out: Huh-7 cell CC50): > 100 µM
EC50 [3]: 0.4 µM
EC50 [4]: 4.1 µM
CC50 (in vitro): > 100 µM
inhibition of human RNA polymerase I activity (reporter gene) (human RNA polymerase I): did not inhibit
inhibition of human RNA polymerase II activity (reporter gene) (human RNA polymerase II): did not inhibit
inhibition of human RNA polymerase III activity (reporter gene) (human RNA polymerase III): did not inhibit
CC50 [5]: > 100 µM

Nc1ccn([C@@H]2CS[C@H](COP(=O)(O)OP(=O)(O)OP(=O)(O)O)O2)c(=O)n1 [lamivudine triphosphate]
IC50 [6]: 149 µM

C[C@H](N[P@@](=O)(OC[C@@]1(N=[N+]=[N-])O[C@@H](n2ccc(=O)[nH]c2=O)[C@H](O)[C@@H]1O)Oc1cccc2ccccc12)C(=O)OCc1ccccc1 [Compound I-36, benzyl ((R)-(((2R,3S,4R,5R)-2-azido-5-(2,4-dioxo-3,4-dihydropyrimidin-1(2H)-yl)-3,4-dihydroxytetrahydrofuran-2-yl)methoxy)(naphthalen-1-yloxy)phosphoryl)-L-alaninate]
IC50 (ZIK-V-RLuc): 1100 nM

C[C@H](N[P@](=O)(OC[C@@]1(N=[N+]=[N-])O[C@@H](n2ccc(=O)[nH]c2=O)[C@H](O)[C@@H]1O)Oc1cccc2ccccc12)C(=O)OCc1ccccc1 [Compound I-37, benzyl ((S)-(((2R,3S,4R,5R)-2-azido-5-(2,4-dioxo-3,4-dihydropyrimidin-1(2H)-yl)-3,4-dihydroxytetrahydrofuran-2-yl)methoxy)(naphthalen-1-yloxy)phosphoryl)-L-alaninate]
IC50 (ZIK-V-RLuc): 1650 nM

[N-]=[N+]=N[C@]1(CO)O[C@@H](n2ccc(=O)[nH]c2=O)[C@H](O)[C@@H]1O [Compound 4AU, 4′-azidouridine]
EC50 [3]: 217 µM
EC50 [4]: > 100 µM
CC50 (in vitro): > 1000 µM
mitochondrial toxicity (HepG2 cells): No mitochondrial toxicity; also recorded: lack of mitochondrial toxicity
conversion to 4AU-triphosphate (4AUTP) [7]: not efficiently converted
safety in chronic toxicity study, rats [8]: safety of 4AU has already been demonstrated
safety in chronic toxicity study, monkeys [9]: safety of 4AU has already been demonstrated
antiviral activity against HCV replication in Phase 1 study (HCV replication): significant antiviral activity
safety in Phase 1 clinical study [10]: safety of 4AU has already been demonstrated
CC50 [5]: > 1000 µM

Cc1cn([C@H]2C[C@H](N=[N+]=[N-])[C@@H](COP(=O)(O)OP(=O)(O)OP(=O)(O)O)O2)c(=O)[nH]c1=O [AZT triphosphate]
IC50 [6]: 2.47 µM

Source: patent publication US20170232031A1, “Inhibitors of Zika Virus” (Riboscience LLC, priority 2016, published 2017)
